In assay [1] the test system is MCF7. Put plainly: Effect on drug uptake in cytoplasm of paclitaxel-treated human MCF7 apoptotic cells. It counts as functional, cell-based.
The test system of a further assay is K562. Put plainly: Effect on drug-uptake in imatinib-induced human K562 apoptotic cells. In kind it is functional, cell-based.
The subject of another assay is HT-29. Put plainly: Effect on drug-uptake in imatinib-induced human HT29 apoptotic cells. In kind it is functional, cell-based.
Assay [2] relates to MCF7. Put plainly: Induction of apoptosis in human MCF7 cells assessed as morphology at 50 nM after 16 hrs. It counts as functional.

Activity calls are given as the source filed them. The calls are words filed in the database; no cut-off is given here.

With `CN(C)c1cccc2c(S(=O)(=O)N/N=C\c3ccc(F)cc3)cccc12`, the result in the assay with MCF7 [1] was Active. As to `CN(C)c1cccc2c(S(=O)(=O)N/N=C/c3ccc(I)cc3)cccc12`, the outcome in the assay on K562 and with HT-29 was Active. With `CN(C)c1cccc2c(S(=O)(=O)N/N=C/c3ccc([N+](=O)[O-])cc3)cccc12`, the outcome with K562 and with HT-29 was Active. With `Cc1cc(=O)cc2c3c1[C@@H]1O[C@H]4[C@@H]5OC(=O)[C@](CC2)([C@@H]4C)[C@H]3[C@@H]51`, the result with K562 and in the assay with HT-29 was Active. Turning to `CC(=O)O[C@H]1C(=O)[C@@]2(C)[C@H]([C@H](OC(=O)c3ccccc3)[C@]3(O)C[C@H](OC(=O)[C@H](O)[C@@H](NC(=O)c4ccccc4)c4ccccc4)C(C)=C1C3(C)C)[C@]1(OC(C)=O)CO[C@@H]1C[C@@H]2O` [PACLITAXEL], the Activity in the assay with MCF7 [2] turned out to be 30%. For the compound `CN(C)c1ccc(/C=N/NS(=O)(=O)c2cccc3c(N(C)C)cccc23)cc1`, the outcome in the assay with K562 and in the assay on HT-29 was Active.

For the origin of these results see ChEMBL document CHEMBL1145565, “Synthesis, biological evaluation and radiochemical labeling of a dansylhydrazone derivative as a potential imaging agent for apoptosis” (2008).
